# Results as given in patent US11458123B2 (Arvinas, Inc., priority 2016, dated 2022).
# System: tau protein
# Assay: Tau protein in vitro degradation assay (Western blot, Tau-13 antibody)
# Assay type: cell-based, human
# Conditions: SK-N-SH cells; 72 hours of incubation; tested at 1000 nM, 300 nM and 100 nM
# Method: Tau Protein In Vitro Degradation Assay
# To determine effect of PROTACs on tau protein degradation SK-N-SH cells were seeded in a 24-well tissue culture-treated plate for at least 18-hours prior to compound addition. Tau PROTACs were evaluated for tau degradation by lysing the cells in lysis buffer with protease inhibitors following a 72-hour incubation with tau PROTACs at 1000 nM, 300 nM and 100 nM for Table 1 and 300 nM, 100 nM, 33 nM and 11 nM for Table 2. Cell lysates were run on standard SDS-PAGE gels, and tau levels were detected by Western blotting using Tau-13 antibody from Abcam (Cambridge, UK) that binds to all forms of human tau.
row,Structure (SMILES),"Activity* (highest amount of degradation observed at any dosage, as tau protein remaining)"
1,"Cc1ncsc1-c1ccc([C@H](C)NC(=O)[C@@H]2C[C@@H](O)CN2C(=O)[C@@H](NC(=O)COCCOCCOc2ccc3nc(-c4ccc(N(C)C)cc4)ccc3c2)C(C)(C)C)cc1 [Compound 28, (2S,4R)-1-((S)-2-(2-(2-(2-(2-(4-(dimethylamino)phenyl)quinolin-6-yloxy)ethoxy)ethoxy)acetamido)-3,3-dimethylbutanoyl)-4-hydroxy-N—((S)-1-(4-(4-methylthiazol-5-yl)phenyl)ethyl)pyrrolidine-2-carboxamide]",C (>80% tau protein remaining after 72 hours of incubation with the test compound)
2,"Cc1ncsc1-c1ccc(CNC(=O)[C@@H]2C[C@@H](O)CN2C(=O)[C@@H](NC(=O)COCCOCCOCCOc2ccc3nc(-c4ccc(N(C)C)cc4)ccc3c2)C(C)(C)C)cc1 [Compound 29, (2S,4R)-1-((S)-2-tert-butyl-14-(2-(4-(dimethylamino)phenyl)quinolin-6-yloxy)-4-oxo-6,9,12-trioxa-3-azatetradecane)-4-hydroxy-N-(4-(4-methylthiazol-5-yl)benzyl)pyrrolidine-2-carboxamide]",C (>80% tau protein remaining after 72 hours of incubation with the test compound)
3,"Cc1ncsc1-c1ccc([C@H](C)NC(=O)[C@@H]2C[C@@H](O)CN2C(=O)[C@@H](NC(=O)COCCOCCOCCOc2ccc3nc(-c4ccc(N(C)C)cc4)ccc3c2)C(C)(C)C)cc1 [Compound 30, (2S,4R)-1-((S)-2-tert-butyl-14-(2-(4-(dimethylamino)phenyl)quinolin-6-yloxy)-4-oxo-6,9,12-trioxa-3-azatetradecane)-4-hydroxy-N—((S)-1-(4-(4-methylthiazol-5-yl)phenyl)ethyl)pyrrolidine-2-carboxamide]",C (>80% tau protein remaining after 72 hours of incubation with the test compound)
4,Cc1ncsc1-c1ccc(CNC(=O)[C@@H]2C[C@@H](O)CN2C(=O)[C@@H](NC(=O)COCCOCCOCCOCCOc2ccc3nc(-c4ccc(N(C)C)cc4)ccc3c2)C(C)(C)C)cc1 [Compound 31],C (>80% tau protein remaining after 72 hours of incubation with the test compound)
5,"Cc1ncsc1-c1ccc([C@H](C)NC(=O)[C@@H]2C[C@@H](O)CN2C(=O)[C@@H](NC(=O)COCCOCCOCCOCCOc2ccc3nc(-c4ccc(N(C)C)cc4)ccc3c2)C(C)(C)C)cc1 [Compound 32, (2S,4R)-1-((S)-2-tert-butyl-17-(2-(4-(dimethylamino)phenyl)quinolin-6-yloxy)-4-oxo-6,9,12,15-tetraoxa-3-azaheptadecane)-4-hydroxy-N—((S)-1-(4-(4-methylthiazol-5-yl)phenyl)ethyl)pyrrolidine-2-carboxamide]",C (>80% tau protein remaining after 72 hours of incubation with the test compound)
6,"Cc1ncsc1-c1ccc(CNC(=O)[C@@H]2C[C@@H](O)CN2C(=O)[C@@H](NC(=O)COCCCCOc2ccc3nc(-c4ccc(N(C)C)cc4)ccc3c2)C(C)(C)C)cc1 [Compound 33, (2S,4R)-1-((S)-2-(2-(4-(2-(4-(dimethylamino)phenyl)quinolin-6-yloxy)butoxy)acetamido)-3,3-dimethylbutanoyl)-4-hydroxy-N-(4-(4-methylthiazol-5-yl)benzyl)pyrrolidine-2-carboxamide]",C (>80% tau protein remaining after 72 hours of incubation with the test compound)
7,"Cc1ncsc1-c1ccc([C@H](C)NC(=O)[C@@H]2C[C@@H](O)CN2C(=O)[C@@H](NC(=O)COCCCCOc2ccc3nc(-c4ccc(N(C)C)cc4)ccc3c2)C(C)(C)C)cc1 [Compound 34, (2S,4R)-1-((S)-2-(2-(4-(2-(4-(dimethylamino)phenyl)quinolin-6-yloxy)butoxy)acetamido)-3,3-dimethylbutanoyl)-4-hydroxy-N—((S)-1-(4-(4-methylthiazol-5-yl)phenyl)ethyl)pyrrolidine-2-carboxamide]",C (>80% tau protein remaining after 72 hours of incubation with the test compound)
8,"Cc1ncsc1-c1ccc(CNC(=O)[C@@H]2C[C@@H](O)CN2C(=O)[C@@H](NC(=O)COCCCOCCCOc2ccc3nc(-c4ccc(N(C)C)cc4)ccc3c2)C(C)(C)C)cc1 [Compound 35, (2S,4R)-1-((S)-2-(2-(3-(3-(2-(4-(dimethylamino)phenyl)quinolin-6-yloxy)propoxy)propoxy)acetamido)-3,3-dimethylbutanoyl)-4-hydroxy-N-(4-(4-methylthiazol-5-yl)benzyl)pyrrolidine-2-carboxamide]",C (>80% tau protein remaining after 72 hours of incubation with the test compound)
9,"Cc1ncsc1-c1ccc([C@H](C)NC(=O)[C@@H]2C[C@@H](O)CN2C(=O)[C@@H](NC(=O)COCCCOCCCOc2ccc3nc(-c4ccc(N(C)C)cc4)ccc3c2)C(C)(C)C)cc1 [Compound 36, (2S,4R)-1-((S)-2-(2-(3-(3-(2-(4-(dimethylamino)phenyl)quinolin-6-yloxy)propoxy)propoxy)acetamido)-3,3-dimethylbutanoyl)-4-hydroxy-N—((S)-1-(4-(4-methylthiazol-5-yl)phenyl)ethyl)pyrrolidine-2-carboxamide]",C (>80% tau protein remaining after 72 hours of incubation with the test compound)
10,"Cc1ncsc1-c1ccc(CNC(=O)[C@@H]2C[C@@H](O)CN2C(=O)[C@@H](NC(=O)COCCCCCOc2ccc3nc(-c4ccc(N(C)C)cc4)ccc3c2)C(C)(C)C)cc1 [Compound 37, (2S,4R)-1-((S)-2-(2-(5-(2-(4-(dimethylamino)phenyl)quinolin-6-yloxy)pentyloxy)acetamido)-3,3-dimethylbutanoyl)-4-hydroxy-N-(4-(4-methylthiazol-5-yl)benzyl)pyrrolidine-2-carboxamide]",C (>80% tau protein remaining after 72 hours of incubation with the test compound)
11,"Cc1ncsc1-c1ccc([C@H](C)NC(=O)[C@@H]2C[C@@H](O)CN2C(=O)[C@@H](NC(=O)COCCCCCOc2ccc3nc(-c4ccc(N(C)C)cc4)ccc3c2)C(C)(C)C)cc1 [Compound 38, (2S,4R)-1-((S)-2-(2-(5-(2-(4-(dimethylamino)phenyl)quinolin-6-yloxy)pentyloxy)acetamido)-3,3-dimethylbutanoyl)-4-hydroxy-N—((S)-1-(4-(4-methylthiazol-5-yl)phenyl)ethyl)pyrrolidine-2-carboxamide]",C (>80% tau protein remaining after 72 hours of incubation with the test compound)
12,"Cc1ncsc1-c1ccc([C@H](C)NC(=O)[C@@H]2C[C@@H](O)CN2C(=O)[C@@H](NC(=O)COCCOCCOCCOCCCOc2ccc3nc(-c4ccc(N(C)C)cc4)ccc3c2)C(C)(C)C)cc1 [Compound 39, (2S,4R)-1-((S)-2-tert-butyl-18-(2-(4-(dimethylamino)phenyl)quinolin-6-yloxy)-4-oxo-6,9,12,15-tetraoxa-3-azaoctadecane)-4-hydroxy-N—((S)-1-(4-(4-methylthiazol-5-yl)phenyl)ethyl)pyrrolidine-2-carboxamide]",C (>80% tau protein remaining after 72 hours of incubation with the test compound)
13,"CN(C)c1ccc(-c2ccc3cc(OCCCOCCOCCOCCOCCNc4cccc5c4C(=O)N(C4CCC(=O)NC4=O)C5=O)ccc3n2)cc1 (centres unmarked) [Compound 40, 4-(15-(2-(4-(dimethylamino)phenyl)quinolin-6-yloxy)-3,6,9,12-tetraoxapentadecylamino)-2-(2,6-dioxopiperidin-3-yl)isoindoline-1,3-dione]",C (>80% tau protein remaining after 72 hours of incubation with the test compound)
14,"O=C1CCC(N2C(=O)c3cccc(NCCOCCOCCOCC(=O)N4CCN(c5ccn6c(n5)nc5ccccc56)CC4)c3C2=O)C(=O)N1 (centres unmarked) [Compound 41, 4-((2-(2-(2-(2-(4-(benzo[4,5]imidazo[1,2-a]pyrimidin-2-yl)piperazin-1-yl)-2-oxoethoxy)ethoxy)ethoxy)ethyl)amino)-2-(2,6-dioxopiperidin-3-yl)isoindoline-1,3-dione]",C (>80% tau protein remaining after 72 hours of incubation with the test compound)
15,"O=C1CCC(N2C(=O)c3cccc(NCCOCCOCCOCCOCC(=O)N4CCN(c5ccn6c(n5)nc5ccccc56)CC4)c3C2=O)C(=O)N1 (centres unmarked) [Compound 42, 4-((14-(4-(benzo[4,5]imidazo[1,2-a]pyrimidin-2-yl)piperazin-1-yl)-14-oxo-3,6,9,12-tetraoxatetradecyl)amino)-2-(2,6-dioxopiperidin-3-yl)isoindoline-1,3-dione]",C (>80% tau protein remaining after 72 hours of incubation with the test compound)
16,"Cc1ncsc1-c1ccc(CNC(=O)[C@@H]2C[C@@H](O)CN2C(=O)[C@@H](NC(=O)COCCOCCOCC(O)COc2ccc3nc(-c4ccc(N(C)C)cc4)ccc3c2)C(C)(C)C)cc1 (stereo partly drawn) [Compound 43, (2S,4R)-1-((2S)-2-(tert-butyl)-15-((2-(4-(dimethylamino)phenyl)quinolin-6-yl)oxy)-14-hydroxy-4-oxo-6,9,12-trioxa-3-azapentadecanoyl)-4-hydroxy-N-(4-(4-methylthiazol-5-yl)benzyl)pyrrolidine-2-carboxamide]",C (>80% tau protein remaining after 72 hours of incubation with the test compound)
17,"CN(C)c1ccc(-c2ccc3cc(OCCCOCCOCCOCCNc4cccc5c4C(=O)N(C4CCC(=O)NC4=O)C5=O)ccc3n2)cc1 (centres unmarked) [Compound 44, 4-(2-(2-(2-(3-(2-(4-(dimethylamino)phenyl)quinolin-6-yloxy)propoxy)ethoxy)ethoxy)ethylamino)-2-(2,6-dioxopiperidin-3-yl)isoindoline-1,3-dione]",C (>80% tau protein remaining after 72 hours of incubation with the test compound)
